Reference: patent US10167259B2, “Allosteric inhibitors of proteasome and methods of use thereof” (THE BOARD OF REGENTS OF THE UNIVERSITY OF TEXAS SYSTEM, priority 2013, dated 2019)

Tests used:
[1] = tested on: proteasome (20S and 26S) in multiple myeloma cells; experiment: Proteasome activity in lysates of treated cultured multiple myeloma cells; type: cell-based
[2] = tested on: chymotrypsin-like activity of the core particle (CP; 20S); experiment: Inhibition of chymotrypsin-like peptidase activity of the proteasome core particle
[3] = tested on: MCF-10A cells; type: cell-based; settings: 160 nM; FIG. 3D
[4] = Stability in the presence of cell lysate or purified CP (RP-HPLC); type: in vitro ADME; settings: cell lysate 0.5 mg/ml or purified CP, up to 1 h at 37° C., FIG. 3C
Method: (§1) The in vitro effects of the compound B1 are also detectable in cell lysates (FIGS. 3A-E). The total chymotrypsin-like activity of the proteasome in the Mcf7 and Mcf10A lysates was measured. […] Also, B1 appears to be stable in the presence of the whole cell lysate or the purified core particle (FIG. 3C).

[5] = tested on: multiple myeloma RPMI8226 cells; experiment: Growth and viability of multiple myeloma RPMI8226 cells; type: cell-based; settings: B1 alone
[6] = tested on: proteasome chymotrypsin-like activity in Mcf7 lysate; experiment: Total chymotrypsin-like activity of the proteasome in cell lysates; type: biochemical
Method: as §1

[7] = molecular target: core particle (20S) activated by regulatory particle 19S; experiment: In vitro activation of the core by purified regulatory particle 19S (26S reconstruction); type: biochemical; settings: FIG. 2E; read-out: IC50, interference with in vitro activation of the core by purified regulatory particle 19S
Description: (§2) The grooves are utilized by Rpt2, Rpt3 and Rpt5 subunits that anchor the regulatory particle to the core particle (Lander, et al., 2009). The anchoring C-terminal tails of Rpt2 and Rpt5 subunits are responsible for core particle gate opening and activation (Lander, et al., 2009). Activation of the core by both Rpt2 and Rpt5 tails is affected by B1 (FIG. 2C). The groove accommodating the C-terminal tail of Rpt2 subunit may be a primary docking place for B1, or B1 may allosterically affect binding of Rpt2 C-terminal tail with an exceptionally high efficiency (FIG. 2D). In vitro reconstruction of the 26S proteasome assembly from the core particle (20S) and regulatory particle (19S) components is attenuated by the treatment with B1 (FIG. 2E).

[8] = tested on: MDA-MB-231 cells; type: cell-based
[9] = molecular target: mTOR (Homo sapiens, UniProt P42345); experiment: mTOR activity in HeLa cells (Western blot with anti-phosphoS6 antibodies); type: cell-based; settings: up to 100 nM, FIG. 3B
[10] = tested on: post-glutamyl peptidase of the core particle; experiment: Inhibition of post-glutamyl peptidase of the core particle; settings: allosteric, noncompetitive
[11] = molecular target: core proteasome activated by Rpt2 and Rpt5 tail peptides; experiment: Blocking activation of core proteasome chymotrypsin-like activity by Rpt2 and Rpt5 tail peptides; type: biochemical
Description: as §2

[12] = tested on: MCF-7 cells; type: cell-based
[13] = tested on: core proteasome α face (gate conformers); experiment: Atomic force microscopy (AFM) imaging of core proteasome gate conformers; settings: FIG. 1E
[14] = molecular target: 26S proteasome assembly; experiment: Inhibition of proteinase activity of the 26S proteasome (casein-BODIPY degradation); settings: read-out: IC50, inhibition of proteinase activity of the 26S proteasome assembly; model substrate casein-BODIPY; FIG. 1C
[15] = tested on: polyubiquitinated proteins in MDA-MB-231 cells; experiment: Accumulation of polyubiquitinated proteins in treated MDA-MB-231 cells (Western blot, FK-1); type: cell-based; settings: MDA-MB-231, 24 hrs, 160 nM; FIG. 3E
[16] = Solubility in solvents; type: physicochemical
[17] = Chou-Talalay, fraction affected >0.3, mostly 1:1 conc. ratio

Q: For `COc1cc(CCCOC(=O)C2CCCCN2C(=O)C(=O)C2CCCCC2)cc(OC)c1OC` (stereo not drawn) [B1], which “Total proteasome activity in lysates of treated cells versus DMSO control” value ([1]; 50 nM B1, model peptide substrate, FIG. 3F left) is on record?
A: lower than in control cells

Q: What about the “Partition of activities between core particle (20S) and 26S assembly” value ([1]; 50 nM B1, non-denaturing gels, FIG. 3F right) of the same compound?
A: shifted in the B1-treated cells toward more of the 20S and less of the 26S proteasomes

Q: What about the “Combined effect with bortezomib on chymotrypsin-like activity of the core particle” value ([2]; in vitro, FIG. 1D) of the same compound?
A: synergizes with bortezomib

Q: What about the IC50 ([2]; read-out: IC50, inhibition of chymotrypsin-like activity of the core particle, FIG. 1B) of the same compound?
A: 19 nM

Q: And the “Cytotoxicity to non-cancerous Mcf10A cells” value [3]?
A: refractory to the treatment

Q: And the “Stability in the presence of cell lysate or purified CP” value [4]?
A: remains intact

Q: And the “Effect on growth of multiple myeloma RPMI8226 cells” value ([5]; FIG. 3D right)?
A: efficiently prevented growth

Q: And the IC50 ([5]; Homo sapiens, RPMI-8226, FIG. 3D, read-out: IC50, multiple myeloma cultured cells)?
A: 59 nM

Q: What about the “Inhibition of total chymotrypsin-like activity of the proteasome in Mcf7 lysate” value [6] of the same compound?
A: well pronounced

Q: And the IC50 [7]?
A: 7.8 nM

Q: What about the “Cytotoxicity to MDA-MB-231 cells” value ([8]; B1 alone, 160 nM, 24 hrs, trypan blue exclusion, FIG. 3D) of the same compound?
A: cytotoxic

Q: What about the “Combination Index (CI) with bortezomib, MDA-MB-231” value [8, 17] of the same compound?
A: below 1

Q: What about the “Effect on mTOR activity” value [9] of the same compound?
A: does not inhibit mTOR activity

Q: And the “Effect on post-glutamyl peptidase of the core particle” value [10]?
A: inhibits

Q: And the IC50 ([11]; FIG. 2C)?
A: ~2 nM

Q: What about the “Blocking activation of the core by the Rpt2 tail” value ([11]; tail present at high, micromolar-range concentrations, FIG. 2D) of the same compound?
A: exceptionally effective

Q: And the “Cytotoxicity to MCF-7 cells” value ([12]; B1 alone, 40 nM, 24 hrs, trypan blue exclusion, FIG. 3D)?
A: cytotoxic

Q: What about the “Combination Index (CI) with bortezomib, MCF-7” value [12, 17] of the same compound?
A: below 1

Q: And the “Effect on open-gate/closed-gate conformers of the core proteasome (AFM)” value ([13]; B1 treatment (100 nM))?
A: shift toward higher abundance of the open gate conformers

Q: What about the “Content of open-gate conformers in the treated core particle (AFM)” value [13] of the same compound?
A: unusually high content of open-gate conformers

Q: And the IC50 [14]?
A: 41 nM

Q: What about the “Polyubiquitinated proteins in lysates of treated cells” value [15] of the same compound?
A: accumulation of polyubiquitinated proteins

Q: For `COc1cc(CCCNC(=O)C2CCCCN2C(=O)C(=O)C2CCCCC2)cc(OC)c1OC` (stereo not drawn) [B2], which “Inhibitory properties toward the core proteasome after modification of B1” value [2] is on record?
A: does not erase the inhibitory properties

Q: And the “Soluble in” value [16]?
A: DMSO, CDCl3

Q: For `COc1cc(/C=C/CCCOC(=O)C2CCCCN2C(=O)C(=O)C2CCCCC2)cc(OC)c1OC` (stereo not drawn) [B4], which “Inhibitory properties toward the core proteasome after modification of B1” value [2] is on record?
A: does not erase the inhibitory properties

Q: For `COc1cc(CCCCCOC(=O)C2CCCCN2C(=O)C(=O)C2CCCCC2)cc(OC)c1OC` (stereo not drawn) [B5], which “Inhibitory properties toward the core proteasome after modification of B1” value [2] is on record?
A: does not erase the inhibitory properties

Q: With `CO[C@@H](C[C@@H]1CC[C@@H](C)[C@](O)(C(=O)C(=O)N2CCCC[C@H]2C(=O)[O-])O1)/C(C)=C/C=C/C=C/[C@@H](C)C[C@@H](C)C(=O)[C@H](OC)[C@H](O)/C(C)=C/[C@@H](C)C(=O)/C=C/[C@H](C)C[C@@H]1CC[C@@H](O)[C@H](OC)C1.[Na+]` [seco-rapamycin, reference compound] as the compound, how does the “Content of open-gate conformers in the treated core particle (AFM)” value [13] read?
A: unusually high content of open-gate conformers
